The source of these data is patent publication US20250136581A1, “SUBSTITUTED TRIAZOLE DERIVATIVE, PREPARATION METHOD THEREFOR, PHARMACEUTICAL COMPOSITION THEREOF, AND USE THEREOF” (SHANGHAI SIMR BIOTECHNOLOGY CO., LTD., priority 2021, published 2025).

As usually defined, the Papp A→B is how fast a substance crosses the layer from the apical side. Higher therefore signals ready permeation. The term Ki denotes a dissociation constant, usually derived from enzyme kinetics or from competition with a known ligand. One may read the Cmax as the peak of the concentration-time curve.

For data set [1], the system named is human MDR1 P-gp. The data set can be described thus: MDCKII-MDR1 permeability. In kind it is in vitro ADME, canine. The following applies: dog. Here is the method:
Brain permeability of compounds was assessed by measuring compound efflux in Madin-Darby canine kidney-II (MDCKII) cells transfected with the human MDR1 gene (Drug metabolism and disposition, 2008, 36(2), 268-275).
The active transport mechanism was mediated by uptake and efflux transporters expressed on MDCKII-MDR1 cells, primarily by overexpressed human MDR1 P-gp.
MDCKII-MDR1 cells were seeded on the polycarbonate microporous membrane of Transwell™ at a density of (0.85 to 5.0)×10^6/cm^2, and used for experiments when the cells reached complete confluence (3 to 5 d). […] At the beginning and end of the experiment, samples were collected from the transport solution side. After incubation for a certain period of time (1.5 hours), samples were also collected from the buffer side, and the concentration was determined by HPLC-MS/MS or scintillation counting.

The target of data set [2] is human α5β3γ2 receptors (α5-GABAA receptor) (Homo sapiens (Human), UniProt P18507+P31644). The data set can be described thus: 3H-flunitrazepam competition binding, human α5β3γ2 GABAA receptor. The settings on record: HEK293 cell membranes, 1 nM 3H-flunitrazepam; read-out: α5-GABAAR Ki. A digest of the protocol: (§1)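 HEK293 membranes stably expressing each human receptor subtype ([…]) competed against 1 nM 3H-flunitrazepam in Tris buffer, 1 h at room temperature; flumazenil defined the low-signal control. Eight-point 4-fold test-compound dilutions; GF/C filtration and scintillation counting gave IC50 by curve fitting, converted to Ki.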

Data set [3] deals with human α1β3γ2 receptors (Homo sapiens (Human), UniProt P14867+P18507). In words: 3H-flunitrazepam competition binding, human α1β3γ2 GABAA receptor. The following applies: HEK293 cell membranes, 1 nM 3H-flunitrazepam; read-out: Ki α1. A digest of the protocol: as §1
A short description of data set [4]: Rat pharmacokinetic experiment. In kind it is in vivo. The following applies: rat, po, 3 mg/kg. How it is done:
The maximum plasma concentration (Cmax) in the rat pharmacokinetic experiment was used to evaluate the absorption of the compounds in rat in vivo. The experimental compound was dissolved and then orally administered by gavage (p.o.) to male SD rats. The rats were fasted overnight before drug administration, and blood was collected via venipuncture at 0.25, 0.5, 1, 2, 4, and 7 hours post dose. Approximately 100 μL blood was collected for each sample; at the same time, the whole brain was taken and homogenized with 3 times the amount of PBS for analysis. The […] method was used to determine drug concentrations in plasma and brain tissue, and the proportion of compounds entering the brain (B/P) was calculated based on the AUC of the compound. Pharmacokinetic parameters were calculated using Phoenix WinNonlin 7.0. The administration vehicle was 5% CMC-Na aqueous solution.

Consider `Cc1nnn(-c2ccc(C(F)F)cc2)c1COc1ccc(N2CC(=O)NC(C)C2)nn1` (stereo not drawn) [Example 6, 4-(6-((1-(4-(Difluoromethyl)phenyl)-4-methyl-1H-1,2,3-triazol-5-yl)methoxy)pyridazin-3-yl)-6-methylpiperazin-2-one], for which, in data set [1] (MDCK-MDR1, pH 7.4, Papp (B-A)/Papp (A-B), read-out: Efflux ratio (ER)), the efflux ratio at 1.5 h was 7.52. In data set [1] (MDCK-MDR1, pH 7.4, 37° C., 1.5 hours), this molecule yielded an apparent permeability from apical to basolateral (Papp A→B) at 1.5 h of 4.16 ×10⁻⁶ cm/s. In addition, the Ki in data set [2] was determined as 0.91 nM; in data set [3], 59.8 nM. In addition, the Kp in data set [4] (male, SD, brain / plasma, read-out: B/P (proportion of compounds entering the brain)) was found to be 0.0015. For the same molecule, in data set [4] (plasma, male SD rats), the highest level (Cmax) was 1510 ng/mL.
